Measured values published in patent US6815205B2, “Auxinic analogues of indole-3-acetic acid” (Invitrogen Corporation, priority 1995, dated 2004).
“Also recorded” adds a separate entry of the source.

Experiments:
Type in all cases: cell-based
transformed tobacco = test: Regeneration of Agrobacterium-mediated transformed tobacco tissue under kanamycin selection; settings: in the presence of BAP; 100 mg/l kanamycin
Description: (§1) These IAA analogues were further evaluated for their abilities to effect the regeneration of plant tissues comprising foreign DNA. Tobacco and potato tissues were subjected to Agrobacterium-mediated transformation techniques, including cocultivation with Agrobacterium containing pBI121 and selecting with MS complete medium containing 0.5 mg/l BAP, 2 mg/l IAA derivative and 100 mg/l kanomycin.
(§2) Agrobacterium-mediated plant transformation was performed as described by Lin et al. (1994) Focus 16:72-77. For example:
In tobacco, the leaf discs were incubated with 10^9 cells/ml of Agrobacterium tumefaciens LBA4404 cells containing pBI121 in MS complete medium with 0.5 mg/l MES for 10 minutes, transferred to solid MS complete medium, and incubated for two days at 25° C., using an 18 hour light/6 hour dark cycle for cocultivation. After cocultivation, the explants were transferred to the MS medium containing a different ratio of BAP/IAA or BAP/IAA analogue, 100 mg/l kanamycin and 500 mg/l carbenicillin and incubated at 25° C. using an 18 hour light/6 hour dark cycle for shoot formation.

transformed potato = test: Regeneration of Agrobacterium-mediated transformed potato tissue under kanamycin selection; settings: in the presence of BAP; 100 mg/l kanamycin
Description: as §1
Plant transformation in potato stems is carried out as described above in section (a) for tobacco.
as §2
In another example, potato leaf discs were transformed with the Agrobacterium-mediation technique as described above for tobacco. The potato explants were then subjected to incubation with IAA analogues in the absence and presence of cytokinin to screen for auxinic activities.

Cassava leaves and stems = test: Regeneration of shoots or calli from cassava leaves and stems with auxin in the presence of BAP; settings: 2 mg/l with 0.5 mg/l BAP, MS complete medium
Description: Further, examples of IAA analogues of the invention were evaluated for auxinic activity in the presence of a cytokinin.
In another embodiment of the invention, IAA analogues of the present invention were applied to the regeneration of plant tissues known in the art to be difficult to regenerate, such as cassava, woody plants, and monocotyledonous crops [Vasil and Vasil (1994) in Plant Cell and Tissue Culture (Vasil and Thorpe, eds.), Kluwer Academic Publishers, Dordrech, Netherlands; Chee (1995) Plant Cell Reports 14:753-757; Bums and Schwartz (1996) Plant Cell Reports 15:405-408; Mihaljevic et al. (1996) Plant Cell Reports 15:610-614; Schopke et al. (1996) Nature Biotechnology 14:731].
Stems or third young leaves were removed from the one month old Cassava plants and cut into small pieces. The explants were incubated on MS complete medium containing different concentrations of auxin related compounds and 0.5 mg/l benzylaminopurine (BAP).
Young tobacco leaves, potato stems, tomato leaves and cassava leaves and stems from one-month-old plants were removed and cut into small pieces. […]

O=C(O)Cc1c[nH]c2ccc(F)cc12 [5-FIAA, 5-fluoroindole-3-acetic acid]
regeneration of kanamycin resistant calli and shoots in transformed tobacco (transformed tobacco): stimulated | regeneration of kanamycin resistant calli in transformed potato (transformed potato): stimulated | shoot formation in cassava stems and leaves (Cassava leaves and stems): promoted the formation of shoots in cassava stems and to a greater extent from cassava leaves; also recorded: regeneration of shoots
